# Key:
# [1] = system: patients with negative symptoms of schizophrenia; test: Study #1 (MIN-101C03): Brief Negative Symptoms Scale (BNSS); assay type: in vivo, human; conditions: Week 12 DB, ITT
# Excerpt: As used herein, “BNSS” is the Brief Negative Symptom Scale. “BNSS” is 13-item instrument designed to measure negative symptoms, specifically: blunted affect, alogia, asociality, anhedonia, and avolition (Kirkpatrick, et al., “The Brief Negative Symptom Scale: Psychometric Properties,” Schizophr. Bull., 2011, 37(2), 300-5.).
# Phase 2b Study #1 (also referred to herein as “MIN-101C03”) was a Phase 2b, double-blind (“DB”), placebo-controlled, randomized, multicenter 12-week study to evaluate the efficacy, safety, and tolerability of Roluperidone in patients ≥18 years to ≤60 years with negative symptoms of schizophrenia, followed by a 24-week open-label (“OL”) extension. The primary objective of the study was to evaluate the efficacy of Roluperidone compared to placebo in improving the negative symptoms of schizophrenia as measured by the change from Baseline in the PANSS negative factor score of the PSM (“PANSS PSM”) over 12 weeks of treatment.
# The study consisted of a pretreatment screening period of up to 28 days (including washout), a 12-week, DB, placebo-controlled period, and a 24-week OL period. Eligible patients (who were symptomatically stable for at least 3 months and had scores of at least 20 on the PANSS negative subscale score) were randomized in a 1:1:1 ratio to receive oral Roluperidone (a modified-release, “MR”, formulation) 32 mg QD, Roluperidone 64 mg QD, or placebo for 12 weeks. […] During the 24-week, OL treatment extension period, patients who were initially randomized to Roluperidone 32 mg or 64 mg continued on the same dose, while patients who were initially randomized to placebo crossed over to Roluperidone 32 mg or 64 mg in a 1:1 ratio.
# schizophrenia patient = test: Case report Patient X: Roluperidone monotherapy over 2+ years; assay type: in vivo, human; conditions: 64 mg/day monotherapy, two years
# Procedure: Patient X presented with flat effect and restricted emotional expression, poor motivation to do much more than watch television and occasionally participate in occupational therapy for a few hours a week. Patient could not fully concentrate enough to even read. During the course of monotherapy with Roluperidone (64 mg/day), patient saw gradual improvement in their negative and cognitive symptoms. This allowed the patient to find employment. Their affect is no longer restricted and they read full novels on a regular basis with no trouble concentrating, and enjoys and looks forward to all their various daily activities.
# [2] = system: dopaminergic (DA) receptors; conditions: background statement; cited from earlier work
substance,measurement,setting,value
"1H-Isoindol-1-one,2-[ [1-[2-(4-fluorophenyl)-2-oxoethyl]-4-piperidinyl]methyl]-2,3-dihydro-, hydrochloride, hydrate (1:1:2) [Roluperidone]",Change from Baseline LS Mean: Brief Negative Symptoms Scale Total Score,[1]; 32 mg QD,−5.44
same,Effect Size vs Placebo: Brief Negative Symptoms Scale Total Score,[1]; 32 mg QD,0.33
same,Change from Baseline LS Mean: Brief Negative Symptoms Scale Total Score,[1]; 64 mg QD,−6.94
same,Effect Size vs Placebo: Brief Negative Symptoms Scale Total Score,[1]; 64 mg QD,0.56
same,Relapse under monotherapy,schizophrenia patient,has not had a relapse
same,Affinity,[2],very low or no affinity
